# From patent publication US10478435B2, “Use of CRAC channel inhibitors for the treatment of stroke and traumatic brain injury” (CalciMedica, Inc., priority 2015, dated 2019)
# Tested on: BV2 cells
# Experiment: Intracellular calcium accumulation in BV2 cells by live fluorescence microscopy with a calcium fluorescent probe
# Format: cell-based
# Conditions: Compound at 10 uM, FIG. 7
# Protocol: Described herein, in some embodiments CRAC channel inhibitors are neuroprotectants in brain ischemia and related conditions. A neuron cell line (Neuro-2A, N-2A) was either cultured alone or in co-culture with microglial BV2 cells. Cells were exposed to a cycle of 2 h oxygen glucose deprivation (OGD) plus 22 h reoxygenation in the absence or presence of inhibitor (concentrations 1-50 μM). Cell viability was determined using quantitative calorimetric MTT assay and live/dead assay using immunofluorescence imaging. Toll-like receptor (TLR)-3 and -4 agonists induced inflammatory responses in microglia leading to increased nitric oxide (NO) generation as determined by the Greiss reagent. Intracellular calcium was determined by live fluorescence microscopy using a calcium fluorescent probe. Peroxide levels were measured as an indicator of oxidative stress. CRAC channels proteins (STIM1 & ORAI1), phosphoactive stress kinase JNK1/2, iNOS and expression was determined by immunoblotting assays. NFκB, NFAT and CREB transcription factors activation was measured by phosphorylation and nuclear translocation. […] The functional activity of the CRAC channels was evaluated by the effect on intracellular calcium accumulation in BV2 cells. […]
# Fluorescence-based A neuron cell line (Neuro-2A, N-2A) was either cultured alone or in co-culture with microglial BV2 cells. […]
smiles,measurement,value
"Cc1nc2cc(C)c(-c3cnc(NC(=O)c4c(F)ccc(F)c4F)s3)cc2o1 [Compound D, N-(5-(2,5-dimethylbenzo[d]oxazol-6-yl)thiazol-2-yl)-2,3,6-trifluorobenzamide]",LPS activated calcium accumulation,blunts LPS activated calcium accumulation
